From the METLIN SMRT retention time set (Domingo-Almenara et al. 2019)

Assay: gradient 5% acetonitrile 3 min, to 50% in 2 min, to 85% in 15 min, held 3 min, 100 µL/min
Conditions: column: Zorbax Extend-C18 2.1 x 50 mm; eluents: water / acetonitrile, 0.1% formic acid
How it was run: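 Retention time was recorded from adduct peaks, which were picked computationally and each inspected manually. Pure standards ran in mixtures of ~100 molecules on HPLC coupled to a quadrupole time-of-flight mass spectrometer, in positive and negative ionization mode, through a Zorbax Extend-C18 column (2.1 × 50 mm, 1.8 μm) at 100 μL/min. Eluents were water and acetonitrile, each with 0.1% formic acid.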

| RP-LC retention time [s] | SMILES |
| --- | --- |
| 709 | C[C@@H]1C(=O)O[C@H]2C[C@@]34C5C[C@@H](C(C)(C)C)[C@]36[C@H](OC(=O)[C@@H]6O)OC4(C(=O)O5)[C@]21O (some centres undefined) |
| 930 | CC(Oc1ccccc1)C(=O)Nc1ccc2c(c1)Sc1ncccc1C(=O)N2C(C)C (centres undefined) |
| 691 | CCOC(=O)N1CCN(Cc2c(O)ccc3ccccc23)CC1 |
| 896 | O=C(NC1CC1)c1ccc2c(c1)CCCN2S(=O)(=O)c1ccc(Cl)cc1 |
| 1080 | Cc1cc(C(=O)Nc2nc(-c3ccccc3)cs2)ccc1[N+](=O)[O-] |
| 992 | CCOC(=O)[C@H]1O[C@@H]1C(=O)N[C@@H](CC(C)C)C(=O)NCCC(C)C |
| 898 | O=C(c1ccc2nsnc2c1)N(Cc1ccsc1)Cc1ccco1 |
| 976 | CCN1C(=O)C2(CCN(S(=O)(=O)Cc3ccccc3)CC2)c2ccccc21 |
| 850 | Cc1nnc(N2CCCC(C(=O)N3CCc4ccccc43)C2)c2nn(-c3ccc(Cl)cc3)c(C)c12 (centres undefined) |
| 669 | Cn1c(C(N)=O)c(N2CCCC2=O)c2cc(F)ccc21 |
| 892 | CCc1ccccc1N1C(=O)CN(S(=O)(=O)CC)CC1(C)C(=O)NCc1ccc(F)cc1 (centres undefined) |
| 689 | O=C(c1csc(S(=O)(=O)N2CCC(C(=O)N3CCCCC3)CC2)c1)N1CCOCC1 |
| 865 | CN(C)c1cccc(C(=O)NC2CCN(c3cc(-c4ccc(Cl)cc4)[nH]n3)C2)c1 (centres undefined) |
| 670 | Cc1ccccc1-c1noc(-c2cccnc2N2CCN(C)CC2)n1 |
| 814 | CC1=C(c2ccc(F)cc2)S(=O)(=O)N=C1N1CCCN(C(=O)C(C)(C)C)CC1 |
| 1150 | Cc1ccc(-c2noc(CCn3nc(-c4ccc(C)c(C)c4)ccc3=O)n2)cc1 |
| 770 | CC1=C(c2ccccc2)S(=O)(=O)N=C1N1CCCN(C(=O)c2cccs2)CC1 |
| 983 | COc1ccc(-c2nnc(Cc3nc(-c4cccc(C)c4)no3)o2)cc1OC |

| RP-LC retention time [s] | SMILES |
| --- | --- |
| 611 | Cn1nc(C2CC2)nc1C1CN(C(=O)Cc2ccc(S(C)(=O)=O)cc2)C1 |
| 886 | Cc1ccc(C(=O)Nc2ccc3c(c2)Sc2ncccc2C(=O)N3C(C)C)s1 |
| 741 | O=C(c1ccsc1)N1CCCN(c2cc(-c3ccccc3)[nH]n2)CC1 |
| 891 | Cc1c(C(=O)N2CCCCCC2)sc2ncn(CC(=O)N3CC(C)CC(C)C3)c(=O)c12 (centres undefined) |
| 798 | COc1cccc(-c2noc(Cn3ccn(-c4ccccc4C)c(=O)c3=O)n2)c1OC |
| 605 | O=C(c1ccncc1)N1CCCN(c2cc(-c3ccc4c(c3)OCO4)[nH]n2)CC1 |
| 995 | COc1ccccc1-c1ccc(=O)n(Cc2nc(-c3ccc(F)cc3)no2)n1 |
| 720 | CCc1nnc(-c2cc(NC(=O)Cc3c[nH]c4ccccc34)c(C)s2)o1 |
| 609 | COc1ccc(NC(=O)c2cn3c(n2)CCCC3)cc1Cl |
| 697 | O=C(NCc1csc(C2CCN(C(=O)c3ccc(F)cc3F)CC2)n1)C1CC1 |
| 789 | Cc1nc(-c2nnn(-c3ccc(F)cc3)c2C)no1 |
| 1300 | Cc1cc(C(=O)Nc2ccccc2F)nc2cc(-c3cccs3)nn12 |
| 1030 | COc1ccc(Cl)cc1NC(=O)C1CCN(S(C)(=O)=O)c2ccccc2O1 (centres undefined) |
| 948 | COc1ccc(-c2csc3c(=O)n(Cc4ccccc4)cnc23)cc1OC |
| 1160 | CCOc1ccccc1NC(=O)CSc1cc(N2CCN(c3ccccc3OC)CC2)ncn1 |
| 685 | CCOc1ccc(NC(=O)NCC2CCOCC2)cc1 |
| 909 | CC(C)Cn1cc(CCNC(=O)c2ccc(F)c(Cl)c2)c2cccnc21 |
| 783 | Cc1cc(C)cc(NC(=O)C2CCCN(c3cc(=O)n(C)c(=O)n3C)C2)c1 (centres undefined) |

Continued, compound first:

| SMILES | RP-LC retention time [s] |
| --- | --- |
| Cc1ccc2c(C(=O)O)cc(NC(=O)C3CCC3)cc2n1 | 574 |
| CN1C(=O)c2cccn2CC1CNC(=O)NCc1ccc(F)cc1 (centres undefined) | 658 |
| CCOC(=O)c1csc(-n2nc(C(F)(F)F)cc2-c2ccc(OC)cc2)n1 | 1280 |
| CC(C)N1CCn2cc(S(=O)(=O)Nc3ccc(F)cc3Cl)cc2C1=O | 778 |
| CCOc1ccc(-c2ccc(=O)n(Cc3nc(-c4ccccn4)no3)n2)cc1 | 813 |
| COc1ccc(OC)c(S(=O)(=O)N2CCCC(C(=O)NC(C)(C)C)C2)c1 (centres undefined) | 768 |
| CCOC(=O)c1sc(N2CCN(c3ccccc3)CC2)nc1N | 931 |
| Cc1ccc2[nH]c(C(=O)NC3CC3)c(N3CCCC3=O)c2c1 | 707 |
| CC(NC(=O)c1ccc2nc(-c3ccc(Cl)cc3)cn2c1)c1cccnc1 (centres undefined) | 603 |
| CC(C)c1nc(-c2ccc(C(=O)NCc3noc(COc4ccccc4)n3)cc2)no1 | 998 |
| Cc1c(NC(=O)C(C)C)c(=O)n(-c2ccccc2)n1C | 745 |
| O=c1n(Cc2c(F)cccc2Cl)nc2c(S(=O)(=O)N3CCc4ccccc4C3)cccn12 | 975 |
| COc1ccc(NS(=O)(=O)c2cccc(-c3nc(-c4ccccc4)no3)c2)cc1 | 1100 |
| Cc1ccc(-c2cn3ccn(-c4cccc(F)c4)c(=O)c3n2)c(C)c1 | 900 |
| COc1ccc(-c2coc3cc(OC(=O)N(C)C)cc(O)c3c2=O)cc1OC | 858 |
| CC(C(=O)N1CCN(c2ccccn2)CC1)N1Cc2ccccc2C1=O (centres undefined) | 587 |
| O=c1c2cc3c(cc2nc(SCc2nc(-c4ccc(F)cc4)no2)n1CC1CCCO1)OCO3 (centres undefined) | 1130 |
| O=C(Nc1cccn2cnnc12)c1ccc(C(F)(F)F)cc1 | 744 |
| CCN(CC)c1nc2cc(C(=O)OC)ccc2c(=O)n1-c1cccc(F)c1 | 1120 |
| COc1ccc(-n2c(C)nc3ccc(NC(=O)c4cccc([N+](=O)[O-])c4C)cc3c2=O)cc1 | 779 |
| CCc1nnc(C2CCN(C(=O)c3ccc(F)cc3F)CC2)s1 | 770 |
| CCCN1C(=O)COc2ccc(-c3noc(-c4cccc(Br)c4)n3)cc21 | 1400 |
| CCCC(NC(=O)Cc1ccccc1F)C(=O)Nc1nc2ccccc2[nH]1 (centres undefined) | 694 |
| OC(CN1CCN(c2ccccc2Cl)CC1)c1ccc2c(c1)OCO2 (centres undefined) | 670 |
| Cc1c(C(=O)N2CCCC2)cc(-c2ccc(F)cc2)n1C | 889 |
| COc1ccc(-c2cc3c(=O)n(Cc4ccccc4)ccn3n2)cc1OC | 906 |
| Cc1ccc(NC(=O)N2CCC(N3CCN(Cc4ccccc4)C(=O)C3=O)CC2)cc1C | 780 |

| SMILES | RP-LC retention time [s] |
| --- | --- |
| O=C(Nc1ccc(S(=O)(=O)N2CCCCC2c2cccnc2)cc1)C1CCCCC1 (centres undefined) | 654 |
| COc1ccc(CC(=O)NC2CCN(c3cc(-c4ccc(Cl)cc4)[nH]n3)C2)cc1OC (centres undefined) | 728 |
| COc1ccc(OC)c(-c2csc(-c3nnn(-c4ccc(Cl)cc4)c3N)n2)c1 | 1200 |
| Cn1cnc(S(=O)(=O)N2CC(Oc3ccc(-c4nc(-c5ccccc5)no4)cc3)C2)c1 | 983 |
| Cc1ccc2c(c1)N(CCCC(=O)NCCCN1CC(C)CC(C)C1)C(=O)CO2 (centres undefined) | 674 |
| CCn1cnc(S(=O)(=O)N2CCC(C(=O)NCc3ccc(Br)cc3)CC2)c1 | 747 |
| CCCCNC(=O)CSc1nnc(C)c2c(C)n(-c3ccccc3)nc12 | 646 |
| CC(C)CC(=O)Nc1nc(-c2ccc3ccccc3c2)cs1 | 1140 |
| CC(C)n1c(CN2CCOCC2)nc2cc(NC(=O)c3cccs3)ccc21 | 640 |
| Cc1cc(C(=O)NC2CCCC2)nc2cc(-c3cccs3)nn12 | 655 |
| Cc1ccc2c(Nc3ccc4c(c3)OCO4)c(C(=O)N3CCCC3)cnc2n1 | 591 |
| CCn1nccc1C(=O)N1CCCC1c1ccc(OC)cc1 (centres undefined) | 772 |
| CCCC(NC(=O)c1cc(C)cc(C)c1)C(=O)Nc1nc2ccccc2[nH]1 (centres undefined) | 751 |
| CCOC(=O)C1=C(CN(CC)Cc2ccccc2)NC(=O)NC1c1cccs1 (centres undefined) | 674 |
| COc1ccc(-c2noc(Cc3nnc(-c4ccccc4)o3)n2)cc1OC | 949 |
| O=C(Nc1nc2c(s1)CCC2)c1ccc2c(c1)OCO2 | 812 |
| Cc1cc(C)c(-c2noc(C)n2)c(NC(=O)c2cccc(Cl)c2)n1 | 827 |
| CN(C)S(=O)(=O)c1ccc2c(c1)Cc1cc(S(=O)(=O)N(C)C)ccc1-2 | 820 |
| O=c1c2sccc2n(Cc2nc(-c3ccc(C(F)(F)F)cc3)no2)c(=O)n1-c1ccc(F)cc1 | 1080 |
| Cn1ccc2c(cc(C(=O)NCc3ccccc3F)n2C)c1=O | 678 |
| COc1ccc(N2CCN(C(=O)C34CCC(C)(C(=O)C3)C4(C)C)CC2)cc1 (centres undefined) | 784 |
| CCOc1ccc(-c2cc(=O)n(CCCC(=O)N3CCN(S(C)(=O)=O)CC3)cn2)cc1 | 680 |
| Cc1cc(C)cc(NC(=O)Cn2c(=O)n(-c3cccc(C)c3)c(=O)c3c2cc(C)n3C)c1 | 882 |
| CCc1ccc(NC(=O)Cc2nnc3cc(-c4nc(CC)no4)ccn23)cc1 | 826 |
| CCOc1ccc(-c2cc3c(=O)n(Cc4nc(-c5ccccc5OC)no4)ncn3n2)cc1 | 1050 |
| O=c1c2ccc(Cl)cc2oc2cc(O)cc(O)c12 | 979 |
